Tested on: carrageenan foot edema
Assay: Rat Carrageenan Foot Pad Edema Test
Assay type: in vivo, Male Sprague-Dawley rats
Details: @ 10 mg/kg body weight, oral, 3 h after carrageenan injection, read-out: RAT PAW EDEMA % Inhibition
Experimental: One hour later a subplantar injection of 0.1 mL of 1% solution of carrageenan/sterile 0.9% saline was administered and the volume of the injected foot was measured with a displacement plethysmometer connected to a pressure transducer with a digital indicator.

Compound `CS(=O)(=O)c1ccc(C2=C(c3ccc(F)cc3)CCC2)cc1` [Example 1, 1-[2-(4-fluorophenyl)cyclopenten-1-yl]-4-(methylsulfonyl)benzene] has an inhibition in vivo at 10 mg/kg of 33%.
